For one assay, the target named is Human HDAC6 (Homo sapiens (Human), UniProt Q9UBN7). The experiment in a line: HDAC6 enzymatic activity assay (Caliper endpoint or fluorogenic format). The format is biochemical. The settings on record: for IC50: in vitro enzymatic; for Selectivity (6 v 8) (fold): ratio of HDAC8 IC50/HDAC6 IC50.
The next assay deals with Human HDAC8 (Homo sapiens (Human), UniProt Q9BY41). The experiment in a line: Caliper endpoint assay for HDAC8 enzymatic activity. The conditions noted are these: in vitro enzymatic. The assay is classed as biochemical.
Human HDAC8, sequence (Q9BY41 whole entry): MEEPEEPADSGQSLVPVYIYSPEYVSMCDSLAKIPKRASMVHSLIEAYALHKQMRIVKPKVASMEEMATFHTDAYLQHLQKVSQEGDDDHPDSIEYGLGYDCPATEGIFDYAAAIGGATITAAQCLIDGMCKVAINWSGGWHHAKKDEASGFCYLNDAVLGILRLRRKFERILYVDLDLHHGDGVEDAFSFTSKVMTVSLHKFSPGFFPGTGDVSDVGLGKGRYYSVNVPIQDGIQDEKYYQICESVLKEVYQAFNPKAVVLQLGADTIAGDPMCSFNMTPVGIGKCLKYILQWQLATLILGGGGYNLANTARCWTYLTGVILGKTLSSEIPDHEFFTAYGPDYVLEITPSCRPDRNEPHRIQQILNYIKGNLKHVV

Human HDAC6, sequence (Q9UBN7 whole entry): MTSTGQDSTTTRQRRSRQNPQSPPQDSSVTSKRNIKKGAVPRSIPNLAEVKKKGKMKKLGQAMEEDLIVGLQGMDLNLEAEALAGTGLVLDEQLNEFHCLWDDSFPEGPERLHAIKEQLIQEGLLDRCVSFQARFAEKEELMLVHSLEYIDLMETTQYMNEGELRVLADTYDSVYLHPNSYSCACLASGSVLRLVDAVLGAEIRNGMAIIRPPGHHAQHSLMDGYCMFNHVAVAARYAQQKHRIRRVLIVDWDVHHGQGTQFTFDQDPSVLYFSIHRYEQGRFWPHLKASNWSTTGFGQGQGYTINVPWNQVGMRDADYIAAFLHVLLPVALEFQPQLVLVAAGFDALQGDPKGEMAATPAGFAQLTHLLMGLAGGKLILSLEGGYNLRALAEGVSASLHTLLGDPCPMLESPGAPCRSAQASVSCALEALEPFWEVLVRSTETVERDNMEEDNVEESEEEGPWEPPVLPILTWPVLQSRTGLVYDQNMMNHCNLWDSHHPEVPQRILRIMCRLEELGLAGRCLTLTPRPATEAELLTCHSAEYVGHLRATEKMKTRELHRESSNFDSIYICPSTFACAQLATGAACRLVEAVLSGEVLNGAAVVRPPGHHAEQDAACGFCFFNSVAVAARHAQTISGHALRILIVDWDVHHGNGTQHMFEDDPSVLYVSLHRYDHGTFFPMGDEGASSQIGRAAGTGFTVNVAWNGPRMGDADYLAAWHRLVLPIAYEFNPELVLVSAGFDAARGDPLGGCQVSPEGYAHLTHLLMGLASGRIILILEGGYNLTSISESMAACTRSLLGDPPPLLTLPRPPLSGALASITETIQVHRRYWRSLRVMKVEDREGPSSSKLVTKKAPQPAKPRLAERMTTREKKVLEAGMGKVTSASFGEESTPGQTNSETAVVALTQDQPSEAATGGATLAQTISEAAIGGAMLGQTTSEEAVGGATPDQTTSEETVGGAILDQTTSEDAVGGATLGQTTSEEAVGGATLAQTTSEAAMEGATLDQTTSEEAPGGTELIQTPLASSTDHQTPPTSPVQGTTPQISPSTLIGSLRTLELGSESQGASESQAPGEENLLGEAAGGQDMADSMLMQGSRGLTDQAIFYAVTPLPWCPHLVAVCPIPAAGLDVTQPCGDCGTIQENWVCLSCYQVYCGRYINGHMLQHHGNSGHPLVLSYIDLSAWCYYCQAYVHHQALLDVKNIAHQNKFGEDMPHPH

For `CC(C)n1ccc(OCc2ccc(-c3nnc(C(F)F)o3)cn2)n1` [Compound 79], at Human HDAC6, the IC50 was in the range of 1 to 100 nM and the “Selectivity (6 v 8) (fold)” value was “V (V: >1000)”. This compound also registered an IC50 against Human HDAC8 of over 100000 nM.

With `Cc1nc(Cl)cc(OCc2ccc(-c3nnc(C(F)F)o3)cn2)n1` [Compound 80], the IC50 lay within 1 to 100 nM against Human HDAC6 and 1000 to 10000 nM against Human HDAC8. For the same compound, the “Selectivity (6 v 8) (fold)” value on Human HDAC6 is on record as “III (III: >10-100)”.

As for `FC(F)c1nnc(-c2ccc(COc3cccn4ccnc34)nc2)o1` [Compound 82], on Human HDAC6, the IC50 fell in the range of 1 to 100 nM and the “Selectivity (6 v 8) (fold)” value is “V (V: >1000)”. The IC50 at Human HDAC8 is over 100000 nM.

For `FC(F)c1nnc(-c2ccc(COc3ccc(C4CC4)nn3)nc2)o1` [Compound 83], on Human HDAC6, the half-inhibitory concentration (IC50) lay within 100 to 1000 nM and the “Selectivity (6 v 8) (fold)” value is listed as “IV (IV: >100-1000)”. Besides, the half-maximal inhibitory concentration (IC50) on Human HDAC8 is 10000 to 100000 nM.

As to `FC(F)c1nnc(-c2ccc(COc3ccc(C4CC4)cn3)nc2)o1` [Compound 85, 2-[6-[(5-cyclopropyl-2-pyridyl)oxymethyl]-3-pyridyl]-5-(difluoromethyl)-1,3,4-oxadiazole], on Human HDAC6, the concentration for half-maximal inhibition (IC50) was 100 to 1000 nM and the “Selectivity (6 v 8) (fold)” value is given as “V (V: >1000)”. This compound returned a 50% inhibitory concentration (IC50) on Human HDAC8 of over 100000 nM.

`FC(F)c1nnc(-c2ccc(COc3cncc4ccccc34)nc2)o1` [Compound 88]: the IC50 was 1 to 100 nM on Human HDAC6 and 10000 to 100000 nM against Human HDAC8. Also, on Human HDAC6, the “Selectivity (6 v 8) (fold)” value was “V (V: >1000)”.

For `FC(F)c1nnc(-c2ccc(COc3ccc(C(F)(F)F)nc3)nc2)o1` [Compound 91], the IC50 at Human HDAC6 is 1 to 100 nM; against Human HDAC8, over 100000 nM. Further, at Human HDAC6, the “Selectivity (6 v 8) (fold)” value was “V (V: >1000)”.

On to `FC(F)c1nnc(-c2ccc(COc3cccc(C(F)(F)F)n3)nc2)o1` [Compound 92], for which the results for the concentration for half-maximal inhibition (IC50) on Human HDAC6 and on Human HDAC8 were 1 to 100 nM and over 100000 nM, respectively. For the same compound, on Human HDAC6, the “Selectivity (6 v 8) (fold)” value is reported as “V (V: >1000)”.

For `FC(F)c1nnc(-c2ccc(COc3cncc(C(F)(F)F)c3)nc2)o1` [Compound 93], at Human HDAC6, the half-inhibitory concentration (IC50) lay within 1 to 100 nM and the “Selectivity (6 v 8) (fold)” value is recorded as “V (V: >1000)”. This compound also yielded an IC50 against Human HDAC8 of over 100000 nM.

With `Cc1nc(OCc2ccc(-c3nnc(C(F)F)o3)cn2)c2ccccc2n1` [Compound 97], at Human HDAC6, the IC50 was in the range of 1 to 100 nM and the “Selectivity (6 v 8) (fold)” value is on record as “V (V: >1000)”. The compound also showed an IC50 on Human HDAC8 of over 100000 nM.

Take `FC(F)c1nnc(-c2ccc(COc3ccnc(N4CCOCC4)n3)nc2)o1` [Compound 99]: the 50% inhibitory concentration (IC50) on Human HDAC6 was 100 to 1000 nM; on Human HDAC8 it was over 100000 nM. The “Selectivity (6 v 8) (fold)” value on Human HDAC6 is listed as “V (V: >1000)”.

Regarding `FC(F)c1nnc(-c2ccc(COc3cncnc3)nc2)o1` [Compound 102], on Human HDAC6, the IC50 fell in the range of 1 to 100 nM and the “Selectivity (6 v 8) (fold)” value is “V (V: >1000)”. This compound yielded a half-inhibitory concentration (IC50) on Human HDAC8 of over 100000 nM.

Turning to `Fc1cnc(OCc2ccc(-c3nnc(C(F)F)o3)cn2)nc1` [Compound 106], at Human HDAC6, the IC50 lay in the range of 100 to 1000 nM and the “Selectivity (6 v 8) (fold)” value is recorded as “V (V: >1000)”. The compound also showed an IC50 at Human HDAC8 of over 100000 nM.

Turning to `N#Cc1ccc(OCc2ccc(-c3nnc(C(F)F)o3)cn2)cc1` [Compound 118, 4-((5-(5-(difluoromethyl)-1,3,4-oxadiazol-2-yl)pyridin-2-yl)methoxy)benzonitrile], on Human HDAC6, the IC50 lay within 1 to 100 nM and the “Selectivity (6 v 8) (fold)” value is “V (V: >1000)”. The same compound gave a 50% inhibitory concentration (IC50) against Human HDAC8 of 10000 to 100000 nM.

In the case of `NC(=O)c1ccc(OCc2ccc(-c3nnc(C(F)F)o3)cn2)cc1` [Compound 122, 4-((5-(5-(difluoromethyl)-1,3,4-oxadiazol-2-yl)pyridin-2-yl)methoxy)benzamide], at Human HDAC6, the IC50 was over 100000 nM and the “Selectivity (6 v 8) (fold)” value was “V (V: >1000)”. The half-maximal inhibitory concentration (IC50) against Human HDAC8 was over 100000 nM.

Consider `FC(F)c1nnc(-c2ccc(COc3ccn4cnnc4c3)nc2)o1` [Compound 184, 2-(6-(([1,2,4]triazolo[4,3-a]pyridin-7-yloxy)methyl)pyridin-3-yl)-5-(difluoromethyl)-1,3,4-oxadiazole], for which, at Human HDAC6, the half-inhibitory concentration (IC50) lay within 100 to 1000 nM and the “Selectivity (6 v 8) (fold)” value was “IV (IV: >100-1000)”. In addition, the IC50 against Human HDAC8 was over 100000 nM.

For the compound `CN1CCc2c(OCc3ccc(-c4nnc(C(F)F)o4)cn3)noc2C1` [Compound 191, 3-((5-(5-(Difluoromethyl)-1,3,4-oxadiazol-2-yl)pyridin-2-yl)methoxy)-6-methyl-4,5,6,7-tetrahydroisoxazolo[5,4-c]pyridine], at Human HDAC6, the IC50 lay in the range of 100 to 1000 nM and the “Selectivity (6 v 8) (fold)” value was “IV (IV: >100-1000)”. Further, the half-inhibitory concentration (IC50) at Human HDAC8 is over 100000 nM.

Regarding `CCn1cnc2ccc(OCc3ccc(-c4nnc(C(F)F)o4)cn3)cc21` [Compound 202], the IC50 is 100 to 1000 nM against Human HDAC6 and over 100000 nM on Human HDAC8. Besides, the “Selectivity (6 v 8) (fold)” value at Human HDAC6 is “IV (IV: >100-1000)”.

In the case of `CC(C)n1cnc2ccc(OCc3ccc(-c4nnc(C(F)F)o4)cn3)cc21` [Compound 203], on Human HDAC6, the half-inhibitory concentration (IC50) was in the range of 1000 to 10000 nM and the “Selectivity (6 v 8) (fold)” value was “III (III: >10-100)”. In addition, the IC50 against Human HDAC8 was over 100000 nM.

As to `Cn1nc(-c2nc3ccc(OCc4ccc(-c5nnc(C(F)F)o5)cn4)cc3o2)ccc1=O` [Compound 204], on Human HDAC6, the half-maximal inhibitory concentration (IC50) is 1 to 100 nM and the “Selectivity (6 v 8) (fold)” value is “V (V: >1000)”. The IC50 on Human HDAC8 was over 100000 nM.

Regarding `FC(F)c1nnc(-c2ccc(COc3ccc4c(c3)ncn4CCN3CCCC3)nc2)o1` [Compound 209], on Human HDAC6, the IC50 was in the range of 1000 to 10000 nM and the “Selectivity (6 v 8) (fold)” value is listed as “III (III: >10-100)”. Besides, the IC50 against Human HDAC8 is over 100000 nM.

For `CN(C)CCn1cnc2cc(OCc3ccc(-c4nnc(C(F)F)o4)cn3)ccc21` [Compound 210], on Human HDAC6, the half-inhibitory concentration (IC50) is 1000 to 10000 nM and the “Selectivity (6 v 8) (fold)” value was “III (III: >10-100)”. On Human HDAC8, this compound displayed a concentration for half-maximal inhibition (IC50) of over 100000 nM.

In the case of `CCn1cnc2cc(OCc3ccc(-c4nnc(C(F)F)o4)cn3)ccc21` [Compound 211], on Human HDAC6, the IC50 lay within 100 to 1000 nM and the “Selectivity (6 v 8) (fold)” value is given as “IV (IV: >100-1000)”. On Human HDAC8, the IC50 is over 100000 nM.

Take `CC(C)n1cnc2cc(OCc3ccc(-c4nnc(C(F)F)o4)cn3)ccc21` [Compound 212]: on Human HDAC6, the half-maximal inhibitory concentration (IC50) is 100 to 1000 nM and the “Selectivity (6 v 8) (fold)” value is “IV (IV: >100-1000)”. At Human HDAC8, this compound displayed a 50% inhibitory concentration (IC50) of over 100000 nM.

The record behind these values is patent US20230322747A1, “OXADIAZOLE HDAC6 INHIBITORS AND USES THEREOF” (Eikonizo Therapeutics, Inc., priority 2022, published 2023).
